Measurements published in patent US12049439B2 (OrsoBio, Inc., priority 2018, dated 2024).
pEC50: −log10 of the molar value.

Tested on: PC-3 cells
Assay: PC-3 Oxygen Rate Consumption (OCR) Assay
Assay type: cell-based
Conditions: Homo sapiens, 0.05 h, medium with 2% FBS, OCR at 3-min post-injection normalized to % increase over DMSO-treated cells, concentration for half-maximal OCR increase, read-out: EC50-PC3-OCR-FBS-3min
Method in brief: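 PC-3 cells seeded a day before, equilibrated 1 h in XF medium with 10 mM glucose, 1 mM pyruvate, 2% FBS, non-CO2 at 37 °C. Compound injected after basal OCR reads; OCR at 3 min post-injection normalized as % increase over DMSO, EC50 = half-maximal increase; six replicates.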

Structure (SMILES)	pEC50
CC(C)(C)S(=O)(=O)Nc1cc(S(F)(F)(F)(F)F)ccc1C(=O)NC12CCC(C#N)(CC1)CC2 [Example 161, N-(4-cyanobicyclo[2.2.2]octan-1-yl)-2-((1,1-dimethylethyl)sulfonamido)-4-(pentafluoro-λ^6-sulfanyl)benzamide]	5.96
O=C(NC12CC(Cl)(C1)C2)c1cc(C(F)(F)F)ccc1NS(=O)(=O)C1COC1 [Example 74, N-(3-chlorobicyclo[1.1.1]pentan-1-yl)-2-(oxetane-3-sulfonamido)-5-(trifluoromethyl)benzamide]	5.21
CS(=O)(=O)Nc1ccc(Cl)cc1C(=O)NC12CCC(C(F)(F)F)(CC1)CC2 [Example 208, 5-chloro-2-(methylsulfonamido)-N-(4-(trifluoromethyl)bicyclo[2.2.2]octan-1-yl)benzamide]	4.97
O=C(NC12CC(C(F)(F)F)(C1)C2)c1ccc(F)cc1NS(=O)(=O)c1ncccn1 [Example 149, 4-fluoro-2-(pyrimidine-2-sulfonamido)-N-(3-(trifluoromethyl)bicyclo[1.1.1]pentan-1-yl)benzamide]	≤ 4.70
N#CC12CCC(NC(=O)c3cc(Cl)ccc3NS(=O)(=O)CCC(F)(F)F)(CC1)CC2 [Example 221, 5-chloro-N-(4-cyanobicyclo[2.2.2]octan-1-yl)-2-((3,3,3-trifluoropropyl)sulfonamido)benzamide]	5.96
CC(C)(C)c1ccc(C(=O)NC23CC(C#N)(C2)C3)c(NS(=O)(=O)c2ccc(S(C)(=O)=O)cc2)c1 [Example 14, 4-(tert-butyl)-N-(3-cyanobicyclo[1.1.1]pentan-1-yl)-2-((4-(methylsulfonyl)phenyl)sulfonamido)benzamide]	≤ 4.70
CS(=O)(=O)Nc1ccc(C(F)(F)F)cc1C(=O)NC1CC2(CC(=O)C2)C1 [Example 195, 2-(methylsulfonamido)-N-(6-oxospiro[3.3]heptan-2-yl)-5-(trifluoromethyl)benzamide]	4.17
CC(C)(C)S(=O)(=O)Nc1ccc(C(F)(F)F)cc1C(=O)NC12CCC(C#N)(CC1)C2 [Example 172, N-(4-cyanobicyclo[2.2.1]heptan-1-yl)-2-((1,1-dimethylethyl)sulfonamido)-5-(trifluoromethyl)benzamide]	5.78
CS(=O)(=O)Nc1cc(F)ccc1C(=O)NC12CC(C1)C2 [Example 137, N-(bicyclo[1.1.1]pentan-1-yl)-4-fluoro-2-(methylsulfonamido)benzamide]	≤ 4.00
COCCOc1ccc(S(=O)(=O)Nc2cc(C(F)(F)F)ccc2C(=O)NC23CC(C(F)(F)F)(C2)C3)cc1 [Example 112, 2-((4-(2-methoxyethoxy)phenyl)sulfonamido)-4-(trifluoromethyl)-N-(3-(trifluoromethyl)bicyclo[1.1.1]pentan-1-yl)benzamide]	5.89
Cc1ncsc1CCS(=O)(=O)Nc1ccc(C(F)(F)F)cc1C(=O)NC12CCC(F)(CC1)CC2 [Example 201, N-(4-fluorobicyclo[2.2.2]octan-1-yl)-2-((2-(4-methylthiazol-5-yl)ethyl)sulfonamido)-5-(trifluoromethyl)benzamide]	5.89
CS(=O)(=O)Nc1ccc(C(F)(F)F)cc1C(=O)NC12CC(C#N)(C1)C2 [Example 165, N-(3-cyanobicyclo[1.1.1]pentan-1-yl)-2-(methylsulfonamido)-5(trifluoromethyl)benzamide]	4.68
CSCCOc1ccc(S(=O)(=O)Nc2cc(C(F)(F)F)ccc2C(=O)NC23CC(C(F)(F)F)(C2)C3)cc1 [Example 113, 2-((4-(2-(methylthio)ethoxy)phenyl)sulfonamido)-4-(trifluoromethyl)-N-(3-(trifluoromethyl)bicyclo[1.1.1]pentan-1-yl)benzamide]	6.16
CN(C)S(=O)(=O)Nc1cc(F)ccc1C(=O)NC12CC(C(F)(F)F)(C1)C2 [Example 188, 2-((N,N-dimethylsulfamoyl)amino)-4-fluoro-N-(3-(trifluoromethyl)bicyclo[1.1.1]pentan-1-yl)benzamide]	5.48
CS(=O)(=O)Nc1cc(Br)ccc1C(=O)NC12CC(C(F)(F)F)(C1)C2 [Example 48, 4-bromo-2-(methylsulfonamido)-N-(3-(trifluoromethyl)bicyclo[1.1.1]pentan-1-yl)benzamide]	5.24
CS(=O)(=O)Oc1ccc(S(=O)(=O)Nc2cc(C(F)(F)F)ccc2C(=O)NC23CC(C(F)(F)F)(C2)C3)cc1 [Example 103, 4-(N-(5-(trifluoromethyl)-2-((3-(trifluoromethyl)bicyclo[1.1.1]pentan-1-yl)carbamoyl)phenyl)sulfamoyl)phenyl methanesulfonate]	5.73
CN(C)S(=O)(=O)Nc1cc(C(F)(F)F)ccc1C(=O)NC12CCC(C#N)(CC1)CC2 [Example 163, N-(4-cyanobicyclo[2.2.2]octan-1-yl)-2-((N,N-dimethylsulfamoyl)amino)-4-(trifluoromethyl)benzamide]	5.42
CCS(=O)(=O)Nc1cc(C(F)(F)F)ccc1C(=O)NC12CC(C(F)(F)F)(C1)C2 [Example 116, 2-(ethylsulfonamido)-4-(trifluoromethyl)-N-(3-(trifluoromethyl)bicyclo[1.1.1]pentan-1-yl)benzamide]	5.80
N#Cc1ccc(NS(=O)(=O)C2CC2)c(C(=O)NC23CCC(C#N)(CC2)CC3)c1 [Example 124, 5-cyano-N-(4-cyanobicyclo[2.2.2]octan-1-yl)-2-(cyclopropanesulfonamido)benzamide]	4.10
CS(=O)(=O)Nc1cc(Cl)ccc1C(=O)NC12CCC(C#N)(CC1)CC2 [Example 214, 4-chloro-N-(4-cyanobicyclo[2.2.2]octan-1-yl)-2-(methylsulfonamido)benzamide]	4.58
CC(C)(C)S(=O)(=O)Nc1ccc(Cl)cc1C(=O)NC12CC(C(F)(F)F)(C1)C2 [Example 84, 5-chloro-2-((1,1-dimethylethyl)sulfonamido)-N-(3-(trifluoromethyl)bicyclo[1.1.1]pentan-1-yl)benzamide]	5.98
Cn1cc(S(=O)(=O)Nc2cc(C(F)(F)F)ccc2C(=O)NC23CC(C(F)(F)F)(C2)C3)cn1 [Example 19, 2-((1-methyl-1H-pyrazole)-4-sulfonamido)-4-(trifluoromethyl)-N-(3-(trifluoromethyl)bicyclo[1.1.1]pentan-1-yl)benzamide]	5.19
CC(C)(C)c1ccc(S(=O)(=O)Nc2cc(C(F)(F)F)ccc2C(=O)NC23CC(C(F)(F)F)(C2)C3)cc1 [Example 4, 2-((4-(tert-butyl)phenyl)sulfonamido)-4-(trifluoromethyl)-N-(3-(trifluoromethyl)bicyclo[1.1.1]pentan-1-yl)benzamide]	6.21
CS(=O)(=O)Nc1ccc(SC(F)(F)F)cc1C(=O)NC12CC(C#N)(C1)C2 [Example 243, N-(3-cyanobicyclo[1.1.1]pentan-1-yl)-2-(methylsulfonamido)-5-((trifluoromethyl)thio)benzamide]	5.21
O=C(NC12CCC(C(F)(F)F)(CC1)CC2)c1ccc(F)cc1NS(=O)(=O)C1CCS(=O)(=O)CC1 [Example 238, 2-((1,1-dioxidotetrahydro-2H-thiopyran)-4-sulfonamido)-4-fluoro-N-(4-(trifluoromethyl)bicyclo[2.2.2]octan-1-yl)benzamide]	4.53
CC(C)S(=O)(=O)Nc1cc(C(F)(F)F)ccc1C(=O)NC12CCC(C#N)(CC1)CC2 [Example 57, N-(4-cyanobicyclo[2.2.2]octan-1-yl)-2-((1-methylethyl)sulfonamido)-4-(trifluoromethyl)benzamide]	5.09
